From ChEMBL document CHEMBL2311447, “Cynaropicrin from Cynara scolymus L. suppresses photoaging of skin by inhibiting the transcription activity of nuclear factor-kappa B” (2013)
Calls of active or inactive are those of the source. No cut-off for these calls is given here.

Key:
[1] = molecular target: Transcription factor p65 (Homo sapiens) (UniProt Q04206); assay: Inhibition of NF-kappaB-65 (unknown origin) expressed in human dermal fibroblasts assessed as inhibition of MMP1 production at 4 uM by EIA
Transcription factor p65 (Homo sapiens), sequence (Q04206 whole entry): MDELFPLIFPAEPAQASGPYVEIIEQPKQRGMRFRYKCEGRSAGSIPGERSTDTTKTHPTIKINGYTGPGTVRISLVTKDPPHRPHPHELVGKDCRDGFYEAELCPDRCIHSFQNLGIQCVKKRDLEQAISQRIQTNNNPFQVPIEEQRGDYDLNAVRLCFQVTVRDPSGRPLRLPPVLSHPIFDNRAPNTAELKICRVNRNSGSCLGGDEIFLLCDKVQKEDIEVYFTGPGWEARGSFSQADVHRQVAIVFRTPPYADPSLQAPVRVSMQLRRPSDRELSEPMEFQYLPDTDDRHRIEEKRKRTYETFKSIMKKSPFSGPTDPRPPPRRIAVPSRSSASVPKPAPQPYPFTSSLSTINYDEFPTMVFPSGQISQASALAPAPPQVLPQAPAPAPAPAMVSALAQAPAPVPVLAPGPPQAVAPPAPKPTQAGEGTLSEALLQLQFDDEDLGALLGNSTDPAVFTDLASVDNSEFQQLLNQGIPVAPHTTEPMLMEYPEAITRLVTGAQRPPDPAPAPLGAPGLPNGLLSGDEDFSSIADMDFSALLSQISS

[2] = test system: HEK293; assay: Inhibition of NF-kappaB (unknown origin) expressed in TNFalpha-stimulated HEK293 cells expressing pGL3-Luc assessed inhibition of transactivation activity after 24 hrs by luciferase assay; type: cell-based; settings: Homo sapiens
[3] = test system: Mus musculus; assay: Antiphotoaging activity in DBA-2 mouse assessed as reduction of UVB-induced melanocyte proliferation in ear tissue at 92.4 to 462.2 mg/kg, po as powder qd for 12 days relative to untreated control; type: functional; settings: dose mg/kg 92.4-462.2
[4] = molecular target: Transcription factor p65 (Homo sapiens) (UniProt Q04206); assay: Inhibition of NF-kappaB-65 (unknown origin) expressed in TNFalpha-stimulated HEK293 cells assessed inhibition of nuclear translocation at 8 uM after 3 hrs; type: cell-based
[5] = molecular target: Transcription factor p65 (Homo sapiens) (UniProt Q04206); assay: Inhibition of NF-kappaB-65 (unknown origin)-mediated transactivation in TNFalpha-stimulated HEK293 cells assessed inhibition of I-kappaB phosphorylation and degradation after 24 hrs; type: cell-based
[6] = molecular target: Transcription factor p65 (Homo sapiens) (UniProt Q04206); assay: Inhibition of NF-kappaB p65 expressed in human keratinocytes co-cultured with human epidermal melanocytes assessed as inhibition of melanocyte proliferation at 4 uM by WST-1 assay; type: cell-based
[7] = test system: Mus musculus; assay: Antiphotoaging activity in DBA-2 mouse assessed as reduction of UVB-induced epidermal hyperproliferation in ear tissue at 92.4 mg/kg, po as powder qd for 12 days relative to untreated control; type: functional, organism-based; design: dose 92.4 mg/kg
[8] = molecular target: Transcription factor p65 (Homo sapiens) (UniProt Q04206); assay: Inhibition of NF-kappaB-65 (unknown origin) expressed in human keratinocytes assessed as inhibition of bFGF production at 4 uM by EIA; type: cell-based
[9] = test system: Mus musculus; assay: Antiphotoaging activity in DBA-2 mouse assessed as reduction of UVB-induced epidermal hyperproliferation in ear tissue at 462.2 mg/kg, po as powder qd for 12 days relative to untreated control; type: functional
[10] = test system: Mus musculus; assay: Antiphotoaging activity in DBA-2 mouse assessed as reduction of UVB-induced PCNA-positive cell in ear tissue at 92.4 to 462.2 mg/kg, po as powder qd for 12 days; type: functional, organism-based
[11] = test system: Mus musculus; assay: Antiphotoaging activity in DBA-2 mouse assessed as reduction of UVB-induced epidermal hyperproliferation in ear tissue administered as po as powder qd for 12 days relative to untreated control; type: functional, organism-based

## C=C(CO)C(=O)O[C@H]1CC(=C)[C@@H]2C[C@H](O)C(=C)[C@@H]2[C@H]2OC(=O)C(=C)[C@@H]21 [CYNAROPICRIN]
[1]
  inhibition: Active
[2]
  inhibition: Dose-dependent effect
[3]
  fold change (FC): 4.3
[4]
  inhibition: Active
[5]
  inhibition: Dose-dependent effect
[6]
  inhibition: Active
[7]
  Activity: Active
[8]
  inhibition: Active
[9]
  fold change (FC): 1.7
[10]
  Activity: inactive
[11]
  Activity: Dose-dependent effect
